Experimental data taken from PubChem BioAssay (NCI).
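Method: 48-hour compound exposure of cells in 96-well plates, five concentrations, linear interpolation of endpoints. GI50: concentration for 50% inhibition of growth. TGI marks complete inhibition of growth.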

Tests used:
Test in all cases: growth of human tumour cells (NCI), 48 h
[1] = test system: SR leukemia
[2] = test system: NCI/ADR-RES ovarian
[3] = test system: MALME-3M melanoma
[4] = test system: UACC-257 melanoma
[5] = test system: OVCAR-8 ovarian
[6] = test system: M14 melanoma
[7] = test system: LOX IMVI melanoma
[8] = test system: NCI-H522 lung
[9] = test system: EKVX NSCLC
[10] = test system: NCI-H460 lung
[11] = test system: SF-268 CNS
[12] = test system: SK-MEL-2 melanoma
[13] = test system: SK-OV-3 ovarian
[14] = test system: A498 renal
[15] = test system: MOLT-4 leukemia
[16] = test system: SF-539 CNS
[17] = test system: HOP-62 NSCLC
[18] = test system: MDA-MB-231 breast
[19] = test system: COLO 205 colon
[20] = test system: IGROV1 ovarian
[21] = test system: SK-MEL-5 melanoma
[22] = test system: OVCAR-5 ovarian
[23] = test system: A549 NSCLC
[24] = test system: HCT-116 colon
[25] = test system: UACC-62 melanoma
[26] = test system: HOP-92 NSCLC
[27] = test system: RPMI-8226 leukemia
[28] = test system: DU-145 prostate
[29] = test system: HCC-2998 colon
[30] = test system: UO-31 renal
[31] = test system: K-562 leukemia
[32] = test system: U251 CNS
[33] = test system: TK-10 renal
[34] = test system: MCF7 breast
[35] = test system: T-47D breast
[36] = test system: HL-60(TB) leukemia
[37] = test system: OVCAR-4 ovarian
[38] = test system: SW-620 colon
[39] = test system: PC-3 prostate
[40] = test system: SNB-19 CNS
[41] = test system: CCRF-CEM leukemia
[42] = test system: SN12C renal
[43] = test system: KM12 colon
[44] = test system: SNB-75 CNS
[45] = test system: MDA-MB-435
[46] = test system: RXF 393 renal

## COc1ccc(/C=C/C(=O)/C=C(/C=C/c2ccc(OC)c(OC)c2OC)OB(F)F)c(OC)c1OC
[1]
  GI50: 0.278 µM
  TGI: > 100 µM
[2]
  GI50: 3.28 µM
  TGI: > 100 µM
[3]
  GI50: 3.02 µM
  TGI: 62.4 µM
[4]
  GI50: 9.33 µM
  TGI: > 100 µM
[5]
  GI50: 1.16 µM
  TGI: > 100 µM
[6]
  GI50: 2.74 µM
  TGI: > 100 µM
[7]
  GI50: 0.721 µM
  TGI: 2.4 µM
[8]
  GI50: 1.35 µM
  TGI: 4.62 µM
[9]
  GI50: 2.96 µM
  TGI: > 100 µM
[10]
  GI50: 1.66 µM
  TGI: 3.52 µM
[11]
  GI50: 2.93 µM
  TGI: > 100 µM
[12]
  GI50: 2.36 µM
  TGI: 8.09 µM
[13]
  GI50: 3.77 µM
  TGI: > 100 µM
[14]
  GI50: 3.35 µM
  TGI: 10.2 µM
[15]
  GI50: 0.425 µM
  TGI: 4.74 µM
[16]
  GI50: 3.11 µM
  TGI: > 100 µM
[17]
  GI50: 3.89 µM
  TGI: > 100 µM
[18]
  GI50: 3.1 µM
  TGI: > 100 µM
[19]
  GI50: 1.94 µM
  TGI: 6.84 µM
[20]
  GI50: 1.89 µM
  TGI: > 100 µM
[21]
  GI50: 1.77 µM
  TGI: 3.91 µM
[22]
  GI50: 3.3 µM
  TGI: > 100 µM
[23]
  GI50: 3.44 µM
  TGI: > 100 µM
[24]
  GI50: 0.399 µM
  TGI: 3.33 µM
[25]
  GI50: 1.47 µM
  TGI: 4.69 µM
[26]
  GI50: 7.46 µM
  TGI: > 100 µM
[27]
  GI50: 0.466 µM
  TGI: 2.77 µM
[28]
  GI50: 3.13 µM
  TGI: > 100 µM
[29]
  GI50: 1.94 µM
  TGI: 3.93 µM
[30]
  GI50: 0.96 µM
  TGI: 3.65 µM
[31]
  GI50: 1.28 µM
  TGI: > 100 µM
[32]
  GI50: 0.973 µM
  TGI: 8.09 µM
[33]
  GI50: 9.03 µM
  TGI: > 100 µM
[34]
  GI50: 0.502 µM
  TGI: > 100 µM
[35]
  GI50: 3.62 µM
  TGI: > 100 µM
[36]
  GI50: 0.469 µM
  TGI: 3.96 µM
[37]
  GI50: 5.09 µM
  TGI: > 100 µM
[38]
  GI50: 0.58 µM
  TGI: 4.34 µM
[39]
  GI50: 2.82 µM
  TGI: > 100 µM
[40]
  GI50: 2.35 µM
  TGI: > 100 µM
[41]
  GI50: 0.366 µM
  TGI: 2.08 µM
[42]
  GI50: 2.01 µM
  TGI: > 100 µM
[43]
  GI50: 2.09 µM
  TGI: 5.08 µM
[44]
  GI50: 4.84 µM
  TGI: > 100 µM
[45]
  GI50: 2.15 µM
  TGI: > 100 µM
[46]
  GI50: 1.35 µM
  TGI: 2.92 µM
